We go through eight compounds from patent US12503483B2, “Gemcitabine amphiphile prodrugs” (NANOMED HOLDINGS PTY LTD, priority 2018, dated 2025).

Series [1] can be described thus: Water penetration scan by polarized optical microscopy (POM). It counts as physicochemical. Conditions: for Appearance of the Lyotropic phase at excess water (25° C.-50° C.): POM, equilibration 1 h; for Lyotropic phase formed in water penetration scan: neat amphiphile to pure water gradient, temperature as worded. As to the method: Polarized Optical Microscopy (POM): Samples used for Polarized Optical Microscopy (POM) were prepared by placing a small amount of prodrug amphiphile on a microscope slide and covered with a cover slip. Water was placed on the edges of the cover slip and allowed to flow into the sample by capillary action. The microscope slide was placed in a Linkam PE94 hot stage (Linkam Scientific Instruments Ltd. Surrey, England) and heated at 3° C./min between room temperature and 50° C. […] Images were captured with a Nikon DS-Ri-1 camera. All images were taken at 100× magnification.
(§1) The results of the water penetration scans and SAXS are summarised in Tables 1 and 2 and indicate that various self-assembled lyotropic liquid crystalline phases were formed for the different Gem apmphiphiles, with a broad range of mesophases from lamellar crystalline structure to lamellar liquid crystalline, cubic mesophases and sponge mesophases.
The textures obtained from water penetration scans along the established concentration gradient from neat amphiphile to pure water provide a quick insight into the lyotropic phase behaviour of a surfactant/water system. Melted neat amphiphile was placed on a microscopic slide and water was then introduced around the edge.

Series [2] in a line: SAXS phase behaviour of hydrated Gem amphiphiles. It counts as physicochemical. Conditions: equilibration 48 h. As to the method: SAXS analyses of the bulk and lyotropic phases of the amphiphiles were performed on a Bruker NanoSTAR laboratory SAXS instrument (Brucker AXS, Kalsruhe, Germany).
The equilibrated lyotropic phases were placed into a demountable button sample cells. For the analysis of the dispersions, a multi-capillary holder was used. Button cells and capillary holder interchangeably fit into a block setup that was temperature-controlled with a Peltier heater-cooler system. 2D scattering images were radially averaged to conventional 1 D scattering plots and as a function of the q value (Å-1) where q is the length of the scattering vector which was calculated using the formula q=(4π/λ)sin(θ/2), where A is the wavelength and 6 is the scattering angle.
The mesophases formed were determined by indexing peaks using the reflection laws as described by De Campo et al., Langmuir, 2004. 20(13), 5254-5261. Small angle X-ray scattering patterns of emulsions and liposomes display large broad peaks while liquid crystalline phases of highly ordered nanostructured particles such as cubosomes and hexosomes display distinct sharp peaks. The relative positions of the peaks (“spacing”) allows for the elucidation of the symmetry of the structure. The interplanar distance (d) between two reflecting planes may be calculated using the formula d=(2π)/q, where q is the absolute position of the peak. This, in turn allows for the calculation of the lattice parameter (a), the size of the unit cell, to be calculated.
as §1

Series [3] deals with Carboxylesterase from porcine liver. The series is described as follows: In-situ enzymatic bioconversion of prodrug nanoparticles (LC/MS). It is filed as in vitro ADME. The following applies: DMPC/cholesterol nanoparticles, 50 uM prodrug, 33.7 units/mL, 37° C.; for Bioconversion to Gemcitabine: FIG. 7b. As for the experimental part: Nanoparticle dispersions of a mixture of Dimyristoylphosphatidylcholine and cholesterol with either (i) Gemcitabine-Phytanyl, (ii) Gemcitabine-PEG3-oleoyl or (iii) Gemcitabine-PEG3-oleoylamide were made at […] concentration of Gemcitabine prodrugs. Carboxylesterase solution from porcine liver obtained from Sigma-Aldrich was added to the nanoparticle dispersions, and the enzyme concentration in each respective nanoparticle dispersion was set to 33.7 units/mL.
The time at which the enzyme solution was added was taken as time zero for the hydrolysis reaction. The mixture was maintained at 37° C. throughout the experiment. The concentration of the hydrolysis product was measured at various time intervals using LC/MS and LC/MS^2 for the detection of prodrug converted to the active drug Gemcitabine. The time at which the sample was injected into the LC column was taken to be the reaction time for such sample. The hydrolysis progress curve, showing the decrease in the concentration of original substrate was plotted against time, whereas the bioconversion to Gemcitabine was determined by MS^2 methods. Standard curves for both prodrugs and the active bioconverted gemcitabine was assessed by using standard samples.
Thermo Finnigan (Finnigan LCQ Series, Thermo Scientific, USA) LC/MS equipped with an electron spray ionization (ESI) was used to assess the enzymatic reaction using both MS and MS^2 mode. The prodrug depletion was detected by negative ion for MS. The conversion of the prodrug to the Gemcitabine was detected by MS^2 at 112.1. 10 μl of sample withdrawn from the reaction solution was injected directly into a Phenomenex C8 150 mm×2 mm 5 uLuna column (Phenomenex, Australia). A 100% Methanol solution was used as mobile phase with the flow rate of 0.5 ml/min. The sample after the column separation was eluted to ESI source. The capillary temperature and ion spray voltage were set at 350° C. and 4.60 respectively. The sample temperature was well maintained at 37° C. during the entire measurement by incubating the samples in the temperature controlled auto-sampler. Data were acquired and processed with Xcalibur Quan chromatography software.
The decreased prodrug was calculated as the percentage of the area under the peak of Gemcitabine-prodrug compared to that before addition of the enzyme. The amount of Gemcitabine produced, was calculated from the area under the peak at 3.4 min related to Gemcitabine at 263 and its MS^2 at 112.1.

The test system of the next series is CACO2 cell line. The series is described as follows: MTS cytotoxicity assay, 72 hours. It counts as cell-based. The following applies: CACO2, 72 hours, prodrugs as nanoparticle dispersions. As for the experimental part:
(§2) The cytotoxicity of gemcitabine nanoparticles dispersion made from gemcitabine amphiphiles in the presence or absence of DMPC-cholesterol was evaluated in comparison to gemcitabine alone in several pancreatic cell lines including CF Pac-1, BxPC3, Panc-1 and MIA PaCa-2, MCF7and CACO2 cell lines. The cell lines were exposed to media with varying concentrations of the treatments (100-0.001 μM) and incubated for 72 hours. Cell viability was determined using the MTS assay and was conducted in triplicate to derive the IC50 values.
(Tetrazolium assays rely on reduction of a dye to a coloured formazan, in cell work by metabolically active cells.)

The next series relates to CFPAC-1 cell line. The series is described as follows: MTS cytotoxicity assay, 72 hours. The following applies: CFPAC-1, 72 hours, prodrugs as nanoparticle dispersions. It counts as cell-based. As to the method: as §2
In the next series the test system is MCF7 cell line. The series is described as follows: MTS cytotoxicity assay, 72 hours. It is filed as cell-based. The following applies: MCF7, 72 hours, prodrugs as nanoparticle dispersions. As for the experimental part: as §2

pIC50: −log10 of the molar value.

For `CCCCCCCC/C=C\CCCCCCCC(=O)OCCOCCOCCOCCOCCOCCOC(=O)Nc1ccn([C@@H]2O[C@H](CO)[C@@H](O)C2(F)F)c(=O)n1` (relative stereo) [Gem-PEG6-oleoyl, 2′-deoxy-2′,2′-difluoro-N4-((((cis-9, octadecenoyl)-oxy-hexaethyleneglycol)oxy)carbonyl) cytidine], the “Appearance of the Lyotropic phase at excess water (25° C.-50° C.)” value (“Appearance of the Lyotropic phase” below) in series [1] was “An isotropic band, cubic phase”. The Lyotropic phase result in series [2] (25° C.) and in series [2] (37° C.) was “Ia3d” throughout. Moreover, the “Lyotropic phase lattice parameter” value in series [2] (25° C.) is on record as 125.2 ± 0.5 Å; in series [2] (37° C.), 124.4 ± 0.5 Å.
As to `CC(C)CCCC(C)CCCC(C)CCCC(C)CCOC(=O)Nc1ccn([C@@H]2O[C@H](CO)[C@@H](O)C2(F)F)c(=O)n1` (stereo partly drawn) [Gem-Phy, 2′-deoxy-2′,2′-difluoro-N4-(((3,7,11,15-tetramethyl-hexadecyl)oxy)carbonyl) cytidine], the “Prodrug reduction (hydrolysis) by CES enzyme” value (“Prodrug reduction (hydrolysis)” for short) in series [3] is given as “slowest prodrug to reduce completely”. Further, in series [1], the “Appearance of the Lyotropic phase” value is reported as “An isotropic band”; the “Lyotropic phase formed in water penetration scan” value was 3D inversed bicontinous cubic phase (Pn3m space group) initially and then transform to 2D hexagonal phase. For the same compound, in series [2] (25° C.), the Lyotropic phase entry is given as “Ia3d” and the “Lyotropic phase lattice parameter” value is recorded as 135.8 ± 0.5 Å. Also, in series [2] (37° C.), the Lyotropic phase result is “Ia3d” and the “Lyotropic phase lattice parameter” value amounted to 135.8 ± 0.5 Å.
In the case of `CCCCCCCC/C=C\CCCCCCCC(=O)OCCOCCOCCOC(=O)Nc1ccn([C@@H]2O[C@H](CO)[C@@H](O)C2(F)F)c(=O)n1` (relative stereo) [Gem-PEG3-oleoyl, 2′-deoxy-2′,2′-difluoro-N4-((((cis-9, octadecenoyl)oxy-triethyleneglycol)oxy)carbonyl) cytidine], the “Prodrug reduction (hydrolysis)” value in series [3] was “reduced to Gem-PEG3 and the oleic acid quickly”. For the same compound, the “Bioconversion to Gemcitabine” value in series [3] was “bioconverted Gemcitabine very slowly”. In series [1], the “Appearance of the Lyotropic phase” value was “Birefringent ( lamellar)”. In addition, the “Lyotropic phase lattice parameter” value in series [2] (25° C.) and in series [2] (37° C.) was 55.26 ± 0.5 Å each time.
Regarding `CCCCCCCC/C=C\CCCCCCCCOC(=O)Nc1ccn([C@@H]2O[C@H](CO)[C@@H](O)C2(F)F)c(=O)n1` (relative stereo) [Gem-Ole, 2′-deoxy-2′,2′-difluoro-N4-(((cis-9, octadecenyl)oxy)carbonyl) cytidine], in series [1], the “Appearance of the Lyotropic phase” value is “Anisotropic band”; the “Lyotropic phase formed in water penetration scan” value was “traditional lamellar (La) phase at room temperature and 3D cubic (Pn3m) phase at elevated temperatures above 33 °C”.
The term pIC50 denotes −log10 of the IC50, conventionally taken in molar units. With `CCCCC/C=C\C/C=C\CCCCCCCC(=O)OCCOCCOCCOC(=O)Nc1ccn([C@@H]2O[C@H](CO)[C@@H](O)C2(F)F)c(=O)n1` (relative stereo) [Gem-PEG3-linoleoyl, 2′-deoxy-2′,2′-difluoro-N4-((((cis-9, cis-12-octadecadienoyl)-oxy-triethyleneglycol)oxy)carbonyl) cytidine], the “Appearance of the Lyotropic phase” value in series [1] is “An isotropic band, emulsion”. Moreover, the figures for the pIC50 with CACO2 cell line, in the series with CFPAC-1 cell line and in the series on MCF7 cell line were 6.70, 6.23 and 7.00, respectively. In addition, the Lyotropic phase entry in series [2] (25° C.) and in series [2] (37° C.) was “Sponge phase (L3)” each time.
`CCCCCCCC/C=C\CCCCCCCC(=O)NCCOCCOCCOC(=O)Nc1ccn([C@@H]2O[C@H](CO)[C@@H](O)C2(F)F)c(=O)n1` (relative stereo) [Gem-PEG3-oleoylamide, 2′-deoxy-2′,2′-difluoro-N4-((((cis-9, octadecenoyl)amino-triethyleneglycol)oxy)carbonyl) cytidine]: in series [3], the “Prodrug reduction (hydrolysis)” value was “reduced at a lower rate” and the “Bioconversion to Gemcitabine” value is reported as “produced Gemcitabine sustainably”. In addition, the Time of prodrug reduction in series [3] (FIG. 7a) was 6 h.
Turning to `CC/C=C\C/C=C\C/C=C\CCCCCCCC(=O)OCCOCCOCCOCCOCCOCCOC(=O)Nc1ccn([C@@H]2O[C@H](CO)[C@@H](O)C2(F)F)c(=O)n1` (relative stereo) [Gem-PEG6-linolenoyl, 2′-deoxy-2′,2′-difluoro-N4-((((cis-9, 12, 15 octadecatrienoyl)-oxy-hexaethyleneglycol)oxy)carbonyl) cytidine], the “Appearance of the Lyotropic phase” value in series [1] was “Emulsion”. In addition, the Lyotropic phase entry in series [2] (25° C.) is reported as “Sponge phase (L3)”.
Turning to `CCCCC/C=C\C/C=C\CCCCCCCCOC(=O)Nc1ccn([C@@H]2O[C@H](CO)[C@@H](O)C2(F)F)c(=O)n1` (relative stereo) [Gem-Lin, 2′-deoxy-2′,2′-difluoro-N4-(((cis-9,12,octadecadienenyl)oxy)carbonyl) cytidine], the “Appearance of the Lyotropic phase” value in series [1] was “A birefringent band (LC)”. The “Lyotropic phase lattice parameter” value in series [2] (25° C.) and in series [2] (37° C.) was 53.2 ± 0.5 Å in each case.
